From patent publication US8722895B2, “Prolyl hydroxylase inhibitors and method of use” (Akebia Therapeutics Inc., priority 2006, dated 2014)

What was measured:
EPO = test: Mouse Serum EPO Assay (mouse ischemic hindlimb study); format: in vivo; details: for EPO response: in vivo response, mouse serum EPO
Experimental: (§1) Mouse Ischemic Hindlimb Study
(§2) All animal work is conducted in accordance with the Guide for the Care and Use of Laboratory Animals (National Academy of Sciences; Copyright® 1996) and the Institutional Animal Care and Use Committee guidelines at Procter and Gamble Pharmaceuticals. We studied 9-10 week old male C57B1/6 mice from Charles River Laboratory (Portage, Mich.). The mice are orally dosed with vehicle (aqueous carbonate buffer, 50 mM; pH 9.0) or compound 1 in vehicle at 50 mg/kg or 100 mg/kg. The animals are dosed three times: day 1 at Sam and 5 pm, day 2 at 8 am. One hour after the first dose, unilateral arterial ligation is performed under anesthesia using isoflurane. The femoral artery is ligated proximal to the origin of the popliteal artery. The contralateral limb underwent a sham surgical procedure. Ligation is performed in an alternating fashion between right and left hindlimbs. Two hours after Sam dosing on day 2, we obtained blood by ventricular stick while the mice are anesthetized with isoflurane. Serum samples for EPO analysis are obtained using gel clot serum separation tubes. Heart, liver, and gastrocnemius muscles are harvested, snap-frozen in liquid nitrogen, and stored in −80° C. until use.
The mouse serum EPO is detected using Mouse Quantikine Erythropoietin ELISA kit from R&D Systems according to manufacturer's instructions.

HIF-1α = test: Mouse Tissue HIF Western Blot Analysis; format: in vivo; details: FIG. 1
Experimental: as §1, §2
Mouse Tissue HIF Western Blot Analysis
Tissues from mice stored at −80° C. are powdered with mortar and pestle chilled with liquid nitrogen. […]

Cc1ccc(-c2ccc(C(=O)NCC(=O)O)c(O)c2)cc1 [[(3-Hydroxy-4′-methyl-biphenyl-4-carbonyl)-amino]-acetic acid]
EPO response (EPO): yes

Cc1ccc(-c2cnc(C(=O)NCC(=O)O)c(O)c2)cc1 [[(3-Hydroxy-5-(4-methylphenyl)pyridine-2-carbonyl)amino]-acetic acid]
EPO response (EPO): yes

COC(=O)CNC(=O)c1ncc(-c2ccccc2Cl)cc1O [{[5-(2-Chlorophenyl)-3-hydroxy-pyridine-2-carbonyl]-amino}-acetic acid methyl ester]
EPO response (EPO): yes

O=C(O)CNC(=O)c1ncc(-c2ccccc2Cl)cc1O [{[5-(2-Chlorophenyl)-3-hydroxypyridine-2-carbonyl]amino}-acetic acid]
EPO response (EPO): yes

COC(=O)CNC(=O)c1ncc(-c2cccc(Cl)c2)cc1O [{[5-(3-Chloro-phenyl)-3-hydroxy-pyridine-2-carbonyl]-amino}acetic acid methyl ester]
EPO response (EPO): yes

O=C(O)CNC(=O)c1ncc(-c2cccc(Cl)c2)cc1O [{[5-(3-Chlorophenyl)-3-hydroxypyridine-2-carbonyl]amino}-acetic acid]
EPO response (EPO): yes
erythropoietin level versus vehicle in mouse serum (EPO; mouse serum after oral dosing, FIG. 2): elevated
stabilization of HIF-1α in mouse liver (immunoblot of nuclear extracts) (HIF-1α): stabilization of HIF-1α

N#Cc1ccc(-c2cnc(C(=O)NCC(=O)O)c(O)c2)cc1 [{[5-(4-Cyanophenyl)-3-hydroxypyridine-2-carbonyl]amino}-acetic acid]
EPO response (EPO): yes

{[5-(4-Chlorophenyl)-3-hydroxypyridine-2-carbonyl]amino}-acetic acid
EPO response (EPO): yes
